Assay results from patent US11603343B2, “Inhibition of DYRK1A kinase” (Ankh Life Sciences Limited, priority 2020, dated 2023).

Target: T1, human DYRK1A (Homo sapiens, UniProt Q13627)
T1 construct: host or cells: E. coli BL21(DE3)
Test: ELISA DYRK1A non-radioactive phosphorylation assay (HT-PRD substrate)
Format: biochemical
Protocol: In order to determine the effectiveness of the DYRK1A inhibitors of the invention, a series of ELISA assays were performed, along with Western Blot assays.
The ELISA assays were devised as a modified form of the assay described in Liu et al. “An ELISA DYRK1A non-radioactive assay suitable for the characterization of inhibitors,” F1000Research 2017, 6:42 (doi: 10.12688/f1000research.10582.1), incorporated by reference herein in its entirety.
Specifically, human DYRK1A (Addgene #38913) and HT-PRD (Addgene #87755) plasmids were obtained from Addgene and were expressed and purified using Ni affinity chromatography, as explained below. Proteins were quantified by the conventional Bradford method and stored at −80° C. until used.
HT-PRD was diluted in dilution buffer (25 mM Tris-HCl, pH 7.4 and 100 mM NaCl) to 4 ng/μL and used to coat a 96-well plate (BD Falcon #353072) with 100 μL per well at 4° C. overnight.
The wells were next washed with dilution buffer 3 times to remove unbound materials, and then the wells were blocked with 150 μL blocking buffer (2% BSA, 1×PBS, and 0.25% Tween 20) at room temperature for 60 minutes with shaking on a shaker.
After the 60-minute shaking period, the wells were washed thoroughly with dilution buffer 3 times to prepare for the phosphorylation in the next step.
Duplicate DYRK1A phosphorylation reactions were performed in the wells with 100 μL reaction mixtures each containing 25 mM HEPES, pH 7.4, 100 mM NaCl, 5 mM MgCl2, 100 μM ATP, 1% DMSO, and 200 ng/mL DYRK1A. Separate reaction mixtures included a no-inhibitor DMSO control, harmine inhibitor, and different concentrations of the inhibitors of the present invention. The plate was left on a temperature-controlled shaker for 30 minutes at 30° C.
The phosphorylation reactions were terminated after the 30-minute shaking, by the addition of 20 mM EDTA. The wells were then washed with PBST (0.02% Tween 20).
HT-PRD phosphorylation was determined by the sandwich antibody staining protocol. […] The extent of the phosphorylation reactions was monitored at λ=405 nm. […]

[1] = tested at 5 μg/mL, significantly greater than DMSO and any of the other fractions at the same level of use (FIG. 1)

Structure (SMILES)	inhibition of DYRK1A [1]	inhibition of DYRK1A (reference inhibitor, text says 100 μg/mL, sample table lists harmine 2 μM and 10 μM (FIG. 1))
Cc1c(O)cc(C(C)C)c(O)c1Cc1cc(O)c(C(C)C)cc1O [compound XVIII]	very pronounced inhibition of DYRK1A	
Cc1c(O)cc(C(C)C)c(O)c1CC1=CC(=O)C(C(C)C)=CC1=O [compound XVII]	very pronounced inhibition of DYRK1A	
COc1ccc2c3c([nH]c2c1)C(C)=NCC3 [harmaline, reference compound]		showed inhibition of DYRK1A
